Assays:
[1] = system: normal aged HSPC; experiment: ADAR1 nanoluc-GFP aged normal bone marrow CD34+ engrafted mice; type: in vivo, human cells in immunocompromised mice; conditions: 10 mg/kg
Description: To further test the utility of the ADAR1 nanoluc-GFP reporter for in vivo detection of endogenous ADAR1 activity, primary human aged normal bone marrow CD34^+ cells were transduced with the reporter vector and transplanted into immunocompromised mice. ADAR1 activity was detected by live animal bioluminescence imaging and corresponded with human cell engraftment detection by flow cytometry.
(§1) In humanized mouse models, sAML cells (CD34^+) from two unique […] patient samples that were splicing factor mutated or unmutated were utilized, including sAML50261 and sAML2008-5.^14 For in vivo efficacy and therapeutic index studies, sAML CD34^+ cells, or normal human cord blood-derived or aged bone marrow-derived HSPCs (CD34^+), were transplanted (50,000-200,000 cells per mouse) intrahepatically into neonatal Rag2^−/−γc^−/− mice, or intravenously into adult NSG-SGM3 mice (Jackson Laboratories, Bar Harbor, ME). A subset of experiments was performed with normal aged bone marrow cells that were transduced with the lentiviral ADAR1 nanoluc-GFP reporter vector prior to transplant. For transplantation into adult mice, animals were irradiated with ^137Cs at a dose of 150 cGy 24 hr before IV transplantation. […]

[2] = system: ADAR1, CD44-012, PTK2B-202, MCL1 transcripts; experiment: Transcripts in human CD34+ cells from treated engrafted sAML mice (qRT-PCR, RNA-seq); type: in vivo
Method: FIG. […]
For RNA editing analyses of whole transcriptome sequencing data, previous datasets were utilized from CD34^+ cells isolated from the spleens of sAML50261-engrafted mice treated once weekly with Rebecsinib in a dose-response assay (5 or 10 mg/kg),^14 along with CD34^+ cells harvested from mice that were serially transplanted with CD34+ cells from sAML50261-engrafted mice that had been treated twice weekly with Rebecsinib at 10 mg/kg (no further treatment was delivered to serial transplant recipients). Due to limiting number of cells remaining after treatment, cells were pooled from n=4 to 5 mice per condition for sequencing. RNA editing analysis was performed as previously described.^5
For quantitative analysis of splice isoform expression, RNA editing rates, and whole gene expression by qRT-PCR, cells or tissue fragments were harvested in RNA lysis buffer and total RNA was extracted using RNeasy mini or micro extraction kits (QIAGEN, Germantown, MD) following the manufacturer's protocol including a DNase incubation step to digest any trace genomic DNA present. Levels of ADAR1 variants and LSC-specific transcripts were quantified by qRT-PCR as previously described.^14 RNA-editing site-specific qRT-PCR (RESSqPCR) was performed for variants in AZIN1 transcripts.^53 Additional species-specific primers were also designed to quantify intron retention rates in cells treated with Rebecsinib as a biomarker of response to RNA splicing modulation. Specifically, for the two-step SYBR-green based assays, as previously described,^7,14,53 100-1000 ng of RNA were subjected to cDNA synthesis using the SUPERSCRIPT III™ (ThermoFisher Scientific) kit followed by qRT-PCR using SYBR GreenER (ThermoFisher Scientific) master mix according to the manufacturer's recommended procedures. qRT-PCR was performed using SYBR GREENER SUPER MIX™ (Life Technologies) on BioRad iQ5™, C1000 TOUCH™, or BioRad CFX384™ instruments. Human splice isoform-specific, RNA editing site-specific qPCR (RESSqPCR)^53. Primer sets that have not been previously published were designed and tested for efficiency followed by analyses in samples exposed to Rebecsinib, with species-specific HPRT primers used as controls. Samples with Ct<35 for the species-specific reference gene, HPRT, were included in analyses. Relative mRNA expression values were calculated using the 2^−ΔCT method, with normalization to untreated or vehicle-treated controls.^54
as §1, with “transplantation. After engraftment levels reached >1% human CD45^+ hematopoietic cells in the peripheral blood, animals were distributed among treatment groups for treatment with Rebecsinib or vehicle control essentially as previously described, with an increased dosing regimen of twice weekly (versus once weekly in prior studies)^14 and an optimized in vivo formulation (2% w/w EtOH, 5% w/v KOLLIPHOR HS™ 15 in 0.9% saline).” for “transplantation.”

[3] = CD34+ cells, sAML50261 engrafted mice, vs vehicle

CC[C@H](OC)[C@@H](C)[C@H]1O[C@@H]1[C@@H](O)[C@H](C)/C=C/C=C(\C)[C@H]1OC(=O)C[C@H](O)CC[C@@](C)(O)[C@@H](OC(C)=O)/C=C/[C@@H]1C [Rebecsinib]
human HSPC engraftment and mature T or B cell maturation [1]: no loss of human HSPC engraftment or mature T or B cell maturation | frequency of normal CD34+ cells in bone marrow ([1]; in comparison to cord blood transplantation models): appeared to be increased | MCL1-S isoform expression in human CD34+ cells ([2]; CD34+ cells from bone marrows of treated mice): increase in the pro-apoptotic MCL1-S isoform expression | CD44-012 splice isoform [2, 3]: significant reduction | PTK2B-202 splice isoform [2, 3]: significant reduction | total ADAR1 RNA expression by qRT-PCR [2, 3]: significant reduction in total ADAR1 RNA expression | MCL1 splice isoform switching ([2]; mice treated with 5 or 10 mg/kg, RNA-seq): splice isoform switching of MCL1-L to MCL1-S | ADAR1 transcript splicing (RNA-seq) ([2]; sAML50261 engrafted mice, Rebecsinib-treated samples): unique retained intron regions and alternative splice site usage
